Assay results from patent US20050170041A1, “Chewing gum compositions comprising monatin and methods for making same” (Cargill, Inc., priority 2003, published 2005).

What was measured:
[1] = Sensory evaluation of chewing gums (quality and time-intensity of sweetness); assay type: in vivo; conditions: in chewing gum, versus aspartame or sucralose
Method: Chewing gums sweetened individually with monatin, aspartame and sucralose were prepared in stick gum format of mint flavor. The gums were prepared to be iso-sweet and evaluated for quality of sweet taste and time-intensity of sweetness delivery.
A standard method of manufacture was adopted for all three gum formulations, as described.
The method of gum manufacture was as follows: • Pre-warm the gum base to 40-45° C. and then add to Z-blade mixer and mix • Sieve sorbitol powder • Remove a portion of the sorbitol, disperse sweetener in that portion and mix thoroughly • Return sweetener/sorbitol mix to remaining bulk of sorbitol powder and mix thoroughly • Mix lycasin and glycerol into a bowl and pre-heat to 50° C. • Add sorbitol powder to the Z-blade mixer containing the gum base • Add lycasin/glycerol and flavor to the Z-blade and mix for 20 minutes • Remove gum from Z-blade mixer • Roll to a thickness of 1.5 mm using a mechanical roller • Dust with talc in the ratio 3 g talc to 100 g gum • Cut into sticks measuring 19 mm×73 mm • Wrap individual sticks in foil Sensory Evaluation
Chewing gum compositions were evaluated by a panel of trained sensory assessors (n 4), all very experienced in the formal sensory evaluation of chewing gums, including an evaluation for time/intensity parameters. Qualitative and temporal characteristics of the gum's flavor and sweetness were evaluated.

[2] = Stability of monatin at high temperature (80° C.) and neutral pH, LC-MS; assay type: physicochemical; conditions: pH 7, 75 ppm, after 7-35 days, synthetic ~96% 2R,4R/2S,4S
Method: A 100 milliliter solution of 75 ppm monatin at pH 7 was used as a stock solution. The synthetic monatin sample contained approximately 96% of the 2R,4R/2S,4S enantiomeric pair and 4% of the 2R,4S/2S,4R enantiomeric pair. Samples were incubated at 80° C. and pH 7 for the duration of the experiment and samples were withdrawn at 0, 1, 2, 3, 4 hours and 1, 2, 4, 7, 14, 21 and 35 days. All experimental conditions were run in duplicate.
A response curve was established for both detected diastereomer peaks of the synthetic monatin. A range of 5-150 ppm was bracketed with the synthetic monatin standard dissolved in DI water. Separation of the two diastereomer peaks was accomplished using a 3.9×150 mm Novapak C18 (Waters Corporation) HPLC column. Ultraviolet-Visible (UV) and Mass Spectrometer (MS) detectors were used in series for detection and quantitation. Monatin and its lactone peak each have a UVmax at 279 nm that aided in precise detection. Quantification was done by acquiring Selected Ion Monitoring (SIM) scan of 293.3 m/z and 275.3 m/z in positive-ion electrospray mode.

Structure (SMILES): NC(CC(O)(Cc1c[nH]c2ccccc12)C(=O)O)C(=O)O (centres unmarked) [Monatin, 2-hydroxy-2-(indol-3-ylmethyl)-4-aminoglutaric acid]
- time/intensity profile for sweetness [1]: very clearly superior to either aspartame or sucralose
- degree of degradation [2]: insignificant
